How the values were obtained:
Experiment in all cases: Kinase panel profiling at 1 µmol/L (mobility shift assay, Carna)
Type in all cases: biochemical
Settings in all cases: 1 µmol/L of BTK inhibitor
HCK = molecular target: T1, HCK (Homo sapiens, UniProt P08631)
T1 construct: purchased Carna Biosciences

TXK = molecular target: T2, TXK (Homo sapiens, UniProt P42681)
T2 construct: purchased Carna Biosciences
T2 sequence (P42681 1-527): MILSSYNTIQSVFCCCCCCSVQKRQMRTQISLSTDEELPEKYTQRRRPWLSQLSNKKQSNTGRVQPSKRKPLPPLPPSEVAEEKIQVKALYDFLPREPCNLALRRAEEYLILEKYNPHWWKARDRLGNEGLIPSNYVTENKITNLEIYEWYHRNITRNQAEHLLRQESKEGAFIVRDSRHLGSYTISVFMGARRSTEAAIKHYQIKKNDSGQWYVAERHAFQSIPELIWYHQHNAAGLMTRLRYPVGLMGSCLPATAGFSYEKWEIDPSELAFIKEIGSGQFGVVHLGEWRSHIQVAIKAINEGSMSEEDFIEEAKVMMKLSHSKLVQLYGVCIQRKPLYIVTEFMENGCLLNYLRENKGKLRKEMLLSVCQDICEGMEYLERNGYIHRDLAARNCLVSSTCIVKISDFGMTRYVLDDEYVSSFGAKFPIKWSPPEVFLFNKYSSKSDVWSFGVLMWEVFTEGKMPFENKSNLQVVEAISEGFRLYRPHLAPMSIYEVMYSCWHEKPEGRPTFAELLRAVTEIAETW

AKT3 = molecular target: T3, AKT3 (Homo sapiens, UniProt Q9Y243)
T3 construct: purchased Carna Biosciences

BRSK2 = molecular target: T4, BRSK2 (Homo sapiens, UniProt Q8IWQ3)
T4 construct: purchased Carna Biosciences
T4 sequence (Q8IWQ3 1-736): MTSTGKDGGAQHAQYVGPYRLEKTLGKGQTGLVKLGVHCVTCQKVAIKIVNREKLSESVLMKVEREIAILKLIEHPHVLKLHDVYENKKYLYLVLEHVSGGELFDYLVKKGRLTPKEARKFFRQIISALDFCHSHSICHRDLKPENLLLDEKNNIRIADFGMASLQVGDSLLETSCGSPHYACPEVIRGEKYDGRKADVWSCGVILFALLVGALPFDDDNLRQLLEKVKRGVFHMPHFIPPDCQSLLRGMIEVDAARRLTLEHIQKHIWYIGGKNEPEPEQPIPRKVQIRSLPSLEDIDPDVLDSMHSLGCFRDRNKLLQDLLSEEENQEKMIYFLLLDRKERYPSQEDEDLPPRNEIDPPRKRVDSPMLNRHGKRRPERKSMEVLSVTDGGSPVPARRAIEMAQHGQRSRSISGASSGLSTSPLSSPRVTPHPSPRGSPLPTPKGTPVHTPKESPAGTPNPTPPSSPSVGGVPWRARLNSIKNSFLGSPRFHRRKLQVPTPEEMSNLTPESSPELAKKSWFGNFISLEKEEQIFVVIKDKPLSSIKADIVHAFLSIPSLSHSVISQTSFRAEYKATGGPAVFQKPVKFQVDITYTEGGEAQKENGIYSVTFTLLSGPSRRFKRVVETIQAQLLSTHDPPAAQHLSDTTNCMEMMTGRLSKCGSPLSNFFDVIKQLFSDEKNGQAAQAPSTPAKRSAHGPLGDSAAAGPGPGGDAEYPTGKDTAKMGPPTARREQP

CaMK1α = molecular target: T5, CaMK1α (Homo sapiens, UniProt Q14012)
T5 construct: purchased Carna Biosciences

EEF2K = molecular target: T6, EEF2K (Homo sapiens, UniProt O00418)
T6 construct: purchased Carna Biosciences
T6 sequence (O00418 1-725): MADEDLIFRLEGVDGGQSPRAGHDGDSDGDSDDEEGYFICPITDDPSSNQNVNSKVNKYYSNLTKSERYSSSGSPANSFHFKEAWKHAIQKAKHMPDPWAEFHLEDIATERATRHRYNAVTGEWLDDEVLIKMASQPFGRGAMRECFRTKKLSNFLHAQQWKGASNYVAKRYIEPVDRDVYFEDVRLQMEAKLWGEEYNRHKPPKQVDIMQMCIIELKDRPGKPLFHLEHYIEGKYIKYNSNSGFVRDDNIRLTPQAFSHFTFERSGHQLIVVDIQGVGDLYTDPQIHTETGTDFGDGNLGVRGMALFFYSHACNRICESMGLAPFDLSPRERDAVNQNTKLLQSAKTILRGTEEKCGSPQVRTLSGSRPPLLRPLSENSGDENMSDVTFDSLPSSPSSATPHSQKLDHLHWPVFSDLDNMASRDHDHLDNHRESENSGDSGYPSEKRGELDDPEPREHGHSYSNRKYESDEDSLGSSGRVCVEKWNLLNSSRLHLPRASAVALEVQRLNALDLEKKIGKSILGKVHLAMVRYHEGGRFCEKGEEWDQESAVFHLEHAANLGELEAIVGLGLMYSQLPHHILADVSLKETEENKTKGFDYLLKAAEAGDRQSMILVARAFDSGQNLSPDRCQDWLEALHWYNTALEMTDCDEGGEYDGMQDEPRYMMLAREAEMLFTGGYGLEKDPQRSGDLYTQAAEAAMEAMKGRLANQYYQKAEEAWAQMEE

JNK3 = molecular target: T7, JNK3 (Homo sapiens, UniProt P53779)
T7 construct: purchased Carna Biosciences

MAPKAPK2 = molecular target: T8, MAPKAPK2 (Homo sapiens, UniProt P49137)
T8 construct: purchased Carna Biosciences

MSK2 = molecular target: T9, MSK2 (Homo sapiens, UniProt O75676)
T9 construct: purchased Carna Biosciences

NIM1K = molecular target: T10, NIM1K (Homo sapiens, UniProt Q8IY84)
T10 construct: purchased Carna Biosciences

PAK4 = molecular target: T11, PAK4 (Homo sapiens, UniProt O96013)
T11 construct: purchased Carna Biosciences

PAK5 = molecular target: T12, PAK5 (Homo sapiens, UniProt Q9P286)
T12 construct: purchased Carna Biosciences

PKR = molecular target: T13, PKR (Homo sapiens, UniProt P19525)
T13 construct: purchased Carna Biosciences

ROCK1 = molecular target: T14, ROCK1 (Homo sapiens, UniProt Q13464)
T14 construct: purchased Carna Biosciences

TNIK = molecular target: T15, TNIK (Homo sapiens, UniProt Q9UKE5)
T15 construct: purchased Carna Biosciences
T15 sequence (Q9UKE5 whole entry): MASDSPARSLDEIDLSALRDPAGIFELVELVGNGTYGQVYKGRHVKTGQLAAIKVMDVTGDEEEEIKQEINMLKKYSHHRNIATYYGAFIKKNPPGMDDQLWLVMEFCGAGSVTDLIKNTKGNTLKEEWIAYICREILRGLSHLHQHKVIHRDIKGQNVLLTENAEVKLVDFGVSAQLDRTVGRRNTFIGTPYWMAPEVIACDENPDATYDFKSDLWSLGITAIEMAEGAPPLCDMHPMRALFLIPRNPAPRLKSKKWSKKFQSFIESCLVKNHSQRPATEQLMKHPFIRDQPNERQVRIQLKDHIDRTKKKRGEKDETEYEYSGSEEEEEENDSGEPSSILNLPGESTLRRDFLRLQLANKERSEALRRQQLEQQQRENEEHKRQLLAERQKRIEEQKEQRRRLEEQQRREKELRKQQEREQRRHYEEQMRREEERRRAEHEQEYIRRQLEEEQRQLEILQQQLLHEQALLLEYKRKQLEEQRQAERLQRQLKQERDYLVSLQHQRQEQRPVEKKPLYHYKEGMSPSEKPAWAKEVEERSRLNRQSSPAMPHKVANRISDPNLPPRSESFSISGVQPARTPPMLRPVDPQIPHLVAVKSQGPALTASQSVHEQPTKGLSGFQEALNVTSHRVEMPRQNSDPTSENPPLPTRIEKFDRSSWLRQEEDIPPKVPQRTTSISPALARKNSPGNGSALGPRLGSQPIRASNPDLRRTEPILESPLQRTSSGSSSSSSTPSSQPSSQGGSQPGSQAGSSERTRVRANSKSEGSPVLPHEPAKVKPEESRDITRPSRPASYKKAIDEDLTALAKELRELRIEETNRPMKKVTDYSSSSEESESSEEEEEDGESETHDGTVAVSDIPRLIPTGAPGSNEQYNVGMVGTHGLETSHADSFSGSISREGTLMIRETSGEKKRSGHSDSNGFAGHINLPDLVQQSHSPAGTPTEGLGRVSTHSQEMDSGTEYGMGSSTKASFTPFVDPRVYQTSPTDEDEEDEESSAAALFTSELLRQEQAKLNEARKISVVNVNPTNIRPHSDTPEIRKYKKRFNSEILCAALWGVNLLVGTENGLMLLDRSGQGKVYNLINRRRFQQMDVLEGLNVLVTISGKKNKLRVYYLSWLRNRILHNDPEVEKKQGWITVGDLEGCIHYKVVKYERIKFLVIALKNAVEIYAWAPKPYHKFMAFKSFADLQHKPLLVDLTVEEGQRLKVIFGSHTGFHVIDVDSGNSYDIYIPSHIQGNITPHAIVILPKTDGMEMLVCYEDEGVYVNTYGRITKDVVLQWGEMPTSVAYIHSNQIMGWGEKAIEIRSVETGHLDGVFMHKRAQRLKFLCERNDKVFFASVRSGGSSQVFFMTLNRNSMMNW

T11 sequence (O96013 whole entry): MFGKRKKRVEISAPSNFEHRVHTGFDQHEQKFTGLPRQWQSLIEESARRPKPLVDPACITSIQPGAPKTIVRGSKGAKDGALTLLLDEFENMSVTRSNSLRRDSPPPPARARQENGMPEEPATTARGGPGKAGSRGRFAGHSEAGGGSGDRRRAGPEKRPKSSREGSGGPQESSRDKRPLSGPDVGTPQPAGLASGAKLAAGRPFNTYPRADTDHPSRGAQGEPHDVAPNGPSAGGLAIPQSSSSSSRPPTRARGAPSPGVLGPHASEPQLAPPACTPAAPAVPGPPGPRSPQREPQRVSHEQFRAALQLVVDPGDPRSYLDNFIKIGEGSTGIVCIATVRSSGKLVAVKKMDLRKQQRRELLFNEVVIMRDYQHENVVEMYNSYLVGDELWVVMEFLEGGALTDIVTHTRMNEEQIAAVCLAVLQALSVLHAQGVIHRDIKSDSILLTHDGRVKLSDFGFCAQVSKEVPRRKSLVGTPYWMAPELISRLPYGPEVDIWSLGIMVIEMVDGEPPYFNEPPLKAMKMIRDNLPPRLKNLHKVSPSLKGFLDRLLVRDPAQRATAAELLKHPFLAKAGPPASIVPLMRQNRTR
T12 sequence (Q9P286 whole entry): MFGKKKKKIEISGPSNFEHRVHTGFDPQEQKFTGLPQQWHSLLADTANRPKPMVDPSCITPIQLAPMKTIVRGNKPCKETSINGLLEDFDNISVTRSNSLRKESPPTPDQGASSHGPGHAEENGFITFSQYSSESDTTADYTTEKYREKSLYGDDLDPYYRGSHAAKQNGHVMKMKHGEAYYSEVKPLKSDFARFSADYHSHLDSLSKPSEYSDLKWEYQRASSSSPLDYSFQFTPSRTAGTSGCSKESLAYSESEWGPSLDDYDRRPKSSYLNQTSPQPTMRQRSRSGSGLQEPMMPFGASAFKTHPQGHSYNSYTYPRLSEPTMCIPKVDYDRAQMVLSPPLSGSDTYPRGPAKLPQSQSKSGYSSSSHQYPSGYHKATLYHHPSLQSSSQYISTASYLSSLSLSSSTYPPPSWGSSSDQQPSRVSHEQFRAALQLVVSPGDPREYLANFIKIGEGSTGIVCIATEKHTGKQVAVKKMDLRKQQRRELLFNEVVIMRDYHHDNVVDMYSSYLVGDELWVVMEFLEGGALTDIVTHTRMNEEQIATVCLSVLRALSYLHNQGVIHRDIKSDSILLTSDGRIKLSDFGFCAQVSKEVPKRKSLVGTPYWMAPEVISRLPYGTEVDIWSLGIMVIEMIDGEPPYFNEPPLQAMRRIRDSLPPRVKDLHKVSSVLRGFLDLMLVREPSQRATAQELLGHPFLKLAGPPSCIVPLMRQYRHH
T1 sequence (P08631 whole entry): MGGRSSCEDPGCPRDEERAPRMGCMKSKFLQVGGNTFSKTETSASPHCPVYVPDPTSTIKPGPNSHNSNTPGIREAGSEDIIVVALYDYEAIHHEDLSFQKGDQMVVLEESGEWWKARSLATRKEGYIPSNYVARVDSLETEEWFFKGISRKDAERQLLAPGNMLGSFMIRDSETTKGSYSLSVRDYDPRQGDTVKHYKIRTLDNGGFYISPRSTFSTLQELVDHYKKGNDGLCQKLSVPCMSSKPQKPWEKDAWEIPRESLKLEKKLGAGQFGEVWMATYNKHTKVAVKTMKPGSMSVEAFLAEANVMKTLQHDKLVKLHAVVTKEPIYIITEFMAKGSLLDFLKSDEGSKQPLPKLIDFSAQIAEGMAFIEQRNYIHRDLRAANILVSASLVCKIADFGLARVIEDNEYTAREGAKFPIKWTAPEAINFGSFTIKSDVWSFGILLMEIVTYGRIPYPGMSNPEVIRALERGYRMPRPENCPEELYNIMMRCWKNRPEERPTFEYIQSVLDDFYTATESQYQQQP
T5 sequence (Q14012 whole entry): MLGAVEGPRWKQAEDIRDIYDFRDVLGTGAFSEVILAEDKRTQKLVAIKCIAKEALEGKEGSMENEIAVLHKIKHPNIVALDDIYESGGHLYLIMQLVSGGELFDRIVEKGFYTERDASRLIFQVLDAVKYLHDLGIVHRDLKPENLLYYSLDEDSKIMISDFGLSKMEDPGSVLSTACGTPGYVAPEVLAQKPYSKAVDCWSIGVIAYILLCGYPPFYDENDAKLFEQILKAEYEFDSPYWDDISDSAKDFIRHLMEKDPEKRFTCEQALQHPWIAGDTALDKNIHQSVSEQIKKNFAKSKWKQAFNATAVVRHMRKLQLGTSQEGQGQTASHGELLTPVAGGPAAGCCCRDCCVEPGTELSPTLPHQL
T13 sequence (P19525 whole entry): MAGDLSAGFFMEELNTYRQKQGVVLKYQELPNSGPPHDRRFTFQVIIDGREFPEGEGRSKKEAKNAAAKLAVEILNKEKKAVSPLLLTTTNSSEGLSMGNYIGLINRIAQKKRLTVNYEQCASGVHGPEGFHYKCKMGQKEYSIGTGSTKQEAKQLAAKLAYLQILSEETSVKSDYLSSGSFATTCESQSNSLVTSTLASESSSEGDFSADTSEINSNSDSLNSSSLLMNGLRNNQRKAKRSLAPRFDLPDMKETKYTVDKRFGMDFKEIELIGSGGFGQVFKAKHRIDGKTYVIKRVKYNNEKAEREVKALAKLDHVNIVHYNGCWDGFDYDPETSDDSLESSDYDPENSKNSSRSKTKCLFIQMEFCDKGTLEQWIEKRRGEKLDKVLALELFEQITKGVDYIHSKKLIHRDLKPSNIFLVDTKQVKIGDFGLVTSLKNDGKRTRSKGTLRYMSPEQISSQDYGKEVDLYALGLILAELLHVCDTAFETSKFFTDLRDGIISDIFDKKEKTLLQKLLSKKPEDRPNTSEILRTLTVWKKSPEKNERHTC
T9 sequence (O75676 whole entry): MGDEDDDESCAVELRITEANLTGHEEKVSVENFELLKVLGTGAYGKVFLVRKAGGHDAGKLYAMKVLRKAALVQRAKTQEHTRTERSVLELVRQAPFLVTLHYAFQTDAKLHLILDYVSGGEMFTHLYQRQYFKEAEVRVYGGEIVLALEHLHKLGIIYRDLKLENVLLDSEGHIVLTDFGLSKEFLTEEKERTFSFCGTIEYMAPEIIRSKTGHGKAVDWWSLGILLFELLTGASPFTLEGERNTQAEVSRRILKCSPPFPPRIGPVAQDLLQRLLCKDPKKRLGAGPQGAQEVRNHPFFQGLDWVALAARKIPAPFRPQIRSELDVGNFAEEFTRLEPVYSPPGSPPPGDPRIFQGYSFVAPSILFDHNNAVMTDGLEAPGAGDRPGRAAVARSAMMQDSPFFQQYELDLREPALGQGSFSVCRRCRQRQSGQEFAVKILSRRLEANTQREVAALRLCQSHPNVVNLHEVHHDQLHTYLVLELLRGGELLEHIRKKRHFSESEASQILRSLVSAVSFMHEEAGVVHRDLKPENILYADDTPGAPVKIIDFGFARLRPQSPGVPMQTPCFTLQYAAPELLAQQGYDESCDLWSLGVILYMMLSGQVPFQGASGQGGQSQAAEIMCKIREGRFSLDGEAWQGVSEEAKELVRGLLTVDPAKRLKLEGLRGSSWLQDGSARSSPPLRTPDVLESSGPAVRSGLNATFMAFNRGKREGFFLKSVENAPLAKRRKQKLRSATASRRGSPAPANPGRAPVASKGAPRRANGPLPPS

Structure (SMILES) | Percentage inhibition of kinase enzyme activity (HCK) | Percentage inhibition of kinase enzyme activity (TXK) | Percentage inhibition of kinase enzyme activity (AKT3) | Percentage inhibition of kinase enzyme activity (BRSK2) | Percentage inhibition of kinase enzyme activity (CaMK1α) | Percentage inhibition of kinase enzyme activity (EEF2K) | Percentage inhibition of kinase enzyme activity (JNK3) | Percentage inhibition of kinase enzyme activity (MAPKAPK2) | Percentage inhibition of kinase enzyme activity (MSK2) | Percentage inhibition of kinase enzyme activity (NIM1K) | Percentage inhibition of kinase enzyme activity (PAK4) | Percentage inhibition of kinase enzyme activity (PAK5) | Percentage inhibition of kinase enzyme activity (PKR) | Percentage inhibition of kinase enzyme activity (ROCK1) | Percentage inhibition of kinase enzyme activity (TNIK)
CC#CC(=O)N1CCC[C@H]1c1nc(-c2ccc(C(=O)Nc3ccccn3)cc2)c2c(N)nccn12 [acalabrutinib] | 0.45% | 67.66% | -4.92% | -10.15% | -4.29% | -12.14% | -0.89% | -20.51% | 1.53% | -7.33% | -1.65% | -0.37% | 7.19% | -7.78% | -0.81%
C=CC(=O)N1CCC[C@@H](n2nc(-c3ccc(Oc4ccccc4)cc3)c3c(N)ncnc32)C1 [ibrutinib] | 99.66% | 98.38% | -2.25% | 15.84% | 13.82% | 1.15% | 0.98% | -12.65% | -2.09% | -2.33% | 10.65% | 12.42% | 5.63% | -5.42% | -1.62%
O=C(c1ccc(Oc2ccccc2)cc1Cl)c1c[nH]c2ncnc(N[C@@H]3CC[C@@H](CO)OC3)c12 [nemtabrutinib] | 96.80% | 97.01% | 9.45% | 15.84% | 11.41% | 0.24% | -2.93% | -7.90% | 5.69% | -2.21% | 53.09% | 66.81% | 29.57% | 16.05% | 85.96%
COc1ccc(F)cc1C(=O)NCc1ccc(-c2nn([C@@H](C)C(F)(F)F)c(N)c2C(N)=O)cc1 [pirtobrutinib] | 24.69% | 43.03% | -2.20% | 7.17% | -9.87% | -0.12% | 0.49% | -13.00% | 1.57% | -1.08% | 4.35% | -1.30% | 7.39% | -4.30% | -3.38%
C=CC(=O)N1CCC([C@@H]2CCNc3c(C(N)=O)c(-c4ccc(Oc5ccccc5)cc4)nn32)CC1 [zanubrutinib] |  | 89.43% |  |  |  |  |  |  |  |  |  |  |  |  | 

From publication PMC12586182 (Frontiers in Oncology, 2025)
